Holding throughout (assay type): biochemical
One assay addresses SIK1 (Homo sapiens, UniProt P57059). The assay is described as follows: Enzymatic activity assay SIK1, RapidFire mass spectrometry (phosphorylation of CHK-peptide). The note with it: RapidFire MS, inhibition of SIK1; read-out: SIK1 RF IC50. In short, it runs like this: (§1)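 Human SIK1/2/3, 5/0.5/1.5 nM; 12.5 mM HEPES pH 7.0, 10 mM Mg acetate, 0.005% BSA. 30 min cpd pre-inc, + CHK-peptide (10 μM soln) + ATP (100 μM soln), 45 min RT. Formic acid stop; RF-MS phospho ratio; IC50.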

For the next assay, the target named is SIK2 (Homo sapiens, UniProt Q9H0K1). As to the kind of experiment: Enzymatic activity assay SIK2, RapidFire mass spectrometry (phosphorylation of CHK-peptide). The note with it: RapidFire MS, inhibition of SIK2; read-out: SIK2 RF IC50. The gist of the method: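 Read-out is the summed phospho-species fraction of CHK-peptide by RapidFire mass spectrometry, normalized between DMSO and 1 μM YKL-05-099. The reaction used 0.5 nM SIK2, 100 μM ATP and 10 μM peptide solutions in HEPES pH 7.0/10 mM magnesium acetate for 45 min at ambient temperature.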
Chain of SIK2 (Q9H0K1 whole entry): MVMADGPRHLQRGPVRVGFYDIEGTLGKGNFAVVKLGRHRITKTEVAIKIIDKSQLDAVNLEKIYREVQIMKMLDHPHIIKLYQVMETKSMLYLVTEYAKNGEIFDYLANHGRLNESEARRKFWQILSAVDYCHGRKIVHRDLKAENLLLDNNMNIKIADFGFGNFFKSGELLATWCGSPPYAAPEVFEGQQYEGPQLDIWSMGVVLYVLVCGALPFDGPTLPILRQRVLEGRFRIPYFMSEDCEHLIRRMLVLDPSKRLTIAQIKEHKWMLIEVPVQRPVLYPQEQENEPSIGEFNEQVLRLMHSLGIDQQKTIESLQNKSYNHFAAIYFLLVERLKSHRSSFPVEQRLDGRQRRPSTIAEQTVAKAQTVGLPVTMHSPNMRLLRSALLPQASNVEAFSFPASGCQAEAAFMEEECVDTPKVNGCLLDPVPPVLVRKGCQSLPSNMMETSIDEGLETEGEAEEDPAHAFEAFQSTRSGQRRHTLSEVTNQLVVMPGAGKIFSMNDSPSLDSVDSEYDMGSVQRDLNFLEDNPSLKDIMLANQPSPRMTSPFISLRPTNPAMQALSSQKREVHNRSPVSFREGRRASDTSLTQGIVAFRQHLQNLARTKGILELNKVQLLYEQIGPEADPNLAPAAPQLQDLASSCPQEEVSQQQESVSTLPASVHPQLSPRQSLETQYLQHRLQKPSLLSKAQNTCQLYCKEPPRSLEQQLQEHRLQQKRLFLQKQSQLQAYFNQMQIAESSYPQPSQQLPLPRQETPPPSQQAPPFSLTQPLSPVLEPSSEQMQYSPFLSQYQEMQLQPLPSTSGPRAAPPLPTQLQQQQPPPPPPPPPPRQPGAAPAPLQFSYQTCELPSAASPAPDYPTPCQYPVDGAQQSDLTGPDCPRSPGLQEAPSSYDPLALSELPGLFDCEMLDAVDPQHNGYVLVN

For the next assay, the target named is SIK3 (Homo sapiens, UniProt Q9Y2K2). As to the kind of experiment: Enzymatic activity assay SIK3, RapidFire mass spectrometry (phosphorylation of CHK-peptide). To be noted: RapidFire MS, inhibition of SIK3; read-out: SIK3 RF IC50. In short, it runs like this: as §1
Chain of SIK3 (Q9Y2K2 whole entry): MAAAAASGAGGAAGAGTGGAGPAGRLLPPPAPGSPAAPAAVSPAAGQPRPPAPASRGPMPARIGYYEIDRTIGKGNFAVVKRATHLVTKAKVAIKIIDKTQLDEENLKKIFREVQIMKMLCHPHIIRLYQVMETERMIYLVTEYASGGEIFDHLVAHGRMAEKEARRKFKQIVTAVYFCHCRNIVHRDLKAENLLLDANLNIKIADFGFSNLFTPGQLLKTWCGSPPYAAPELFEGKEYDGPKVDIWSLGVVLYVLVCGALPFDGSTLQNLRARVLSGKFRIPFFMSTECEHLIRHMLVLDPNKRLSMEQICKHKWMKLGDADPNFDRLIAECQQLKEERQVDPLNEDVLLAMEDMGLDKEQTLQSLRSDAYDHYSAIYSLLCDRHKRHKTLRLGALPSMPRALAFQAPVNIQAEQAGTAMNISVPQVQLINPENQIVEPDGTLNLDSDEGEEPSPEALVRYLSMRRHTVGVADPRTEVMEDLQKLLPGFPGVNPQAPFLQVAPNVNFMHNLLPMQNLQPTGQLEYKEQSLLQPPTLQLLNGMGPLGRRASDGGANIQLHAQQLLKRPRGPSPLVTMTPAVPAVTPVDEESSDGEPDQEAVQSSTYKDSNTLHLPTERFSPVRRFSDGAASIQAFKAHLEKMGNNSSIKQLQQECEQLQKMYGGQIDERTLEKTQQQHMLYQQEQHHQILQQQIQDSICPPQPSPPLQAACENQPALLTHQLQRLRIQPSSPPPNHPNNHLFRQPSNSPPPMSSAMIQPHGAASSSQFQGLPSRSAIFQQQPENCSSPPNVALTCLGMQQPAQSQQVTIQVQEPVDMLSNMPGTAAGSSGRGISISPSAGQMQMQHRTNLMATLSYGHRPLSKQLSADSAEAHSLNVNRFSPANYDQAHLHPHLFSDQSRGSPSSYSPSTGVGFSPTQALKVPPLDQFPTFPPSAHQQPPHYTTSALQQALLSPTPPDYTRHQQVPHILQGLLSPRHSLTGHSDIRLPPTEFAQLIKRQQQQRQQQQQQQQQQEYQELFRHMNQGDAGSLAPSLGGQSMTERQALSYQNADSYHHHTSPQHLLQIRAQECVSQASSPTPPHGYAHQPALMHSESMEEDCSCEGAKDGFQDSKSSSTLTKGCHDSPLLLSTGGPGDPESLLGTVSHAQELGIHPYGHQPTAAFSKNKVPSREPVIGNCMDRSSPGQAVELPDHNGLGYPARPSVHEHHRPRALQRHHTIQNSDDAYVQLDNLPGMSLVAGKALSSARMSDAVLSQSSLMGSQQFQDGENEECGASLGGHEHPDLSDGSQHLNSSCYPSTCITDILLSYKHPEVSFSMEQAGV

Chain of SIK1 (P57059 whole entry): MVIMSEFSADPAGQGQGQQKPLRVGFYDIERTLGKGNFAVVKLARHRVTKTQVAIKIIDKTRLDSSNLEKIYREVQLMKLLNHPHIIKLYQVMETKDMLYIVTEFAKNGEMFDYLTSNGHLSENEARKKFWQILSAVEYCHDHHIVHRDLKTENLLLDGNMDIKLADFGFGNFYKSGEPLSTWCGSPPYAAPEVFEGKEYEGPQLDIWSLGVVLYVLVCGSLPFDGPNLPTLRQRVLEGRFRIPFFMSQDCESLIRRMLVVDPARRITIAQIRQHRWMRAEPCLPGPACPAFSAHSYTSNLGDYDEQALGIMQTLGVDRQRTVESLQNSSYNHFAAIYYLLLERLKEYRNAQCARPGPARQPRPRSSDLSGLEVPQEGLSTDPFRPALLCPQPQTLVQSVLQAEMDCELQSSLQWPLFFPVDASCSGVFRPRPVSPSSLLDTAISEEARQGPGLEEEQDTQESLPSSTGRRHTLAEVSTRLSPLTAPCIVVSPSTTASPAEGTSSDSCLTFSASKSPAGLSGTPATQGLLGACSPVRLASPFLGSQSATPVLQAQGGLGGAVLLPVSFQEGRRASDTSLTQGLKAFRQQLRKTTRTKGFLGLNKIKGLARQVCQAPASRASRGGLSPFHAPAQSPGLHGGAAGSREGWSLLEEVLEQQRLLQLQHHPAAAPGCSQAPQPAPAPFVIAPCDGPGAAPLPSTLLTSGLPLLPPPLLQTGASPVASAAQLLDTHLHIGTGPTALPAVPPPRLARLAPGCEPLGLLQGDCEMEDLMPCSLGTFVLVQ

Broadly, the IC50 is the concentration that inhibits the measured activity by half. As to `Cc1cc(C#N)nn1-c1nc(-n2cnc3cc(Nc4ccc(F)c(F)c4F)c(F)cc32)ccc1C(C)O` (stereo not drawn) [Example 378, 1-[6-[6-fluoro-5-(2,3,4-trifluoroanilino)benzimidazol-1-yl]-3-(1-hydroxyethyl)-2-pyridyl]-5-methyl-pyrazole-3-carbonitrile], the figures for the IC50 on SIK1, at SIK2 and at SIK3 were 79 nM, 32.5 nM and 21.7 nM, respectively.

Consider `Cc1ccc(Nc2cc3ncn(-c4ccc([C@@H](C)O)c(-n5nc(C#N)cc5C)n4)c3cc2OC(F)F)nn1` [Example 403, 1-[6-[6-(difluoromethoxy)-5-[(6-methylpyridazin-3-yl)amino]benzimidazol-1-yl]-3-[(1R)-1-hydroxyethyl]-2-pyridyl]-5-methyl-pyrazole-3-carbonitrile], for which the IC50 at SIK1 is 458 nM; on SIK2 it was 24.7 nM; at SIK3, 32.2 nM.

As to `Cc1cc(C#N)nn1-c1nc(-n2cnc3cc(N4CCCC45COC5)ccc32)ccc1C(C)O` (stereo not drawn) [Example 296, 1-[3-(1-hydroxyethyl)-6-[5-(2-oxa-5-azaspiro[3.4]octan-5-l)benzimidazol-1-yl]-2-pyridyl]-5-methyl-pyrazole-3-carbonitrile], the results for the IC50 at SIK1, at SIK2 and at SIK3 were 137 nM, 77 nM and 90 nM, respectively.

In the case of `Cc1ccc(Nc2cc3ncn(-c4ccc(C(C)O)c(-n5nc(C#N)cc5C)n4)c3cc2OC(F)F)nn1` (stereo not drawn) [Example 388, 1-[6-[6-(difluoromethoxy)-5-[(6-methylpyridazin-3-yl)amino]benzimidazol-1-yl]-3-(1-hydroxyethyl)-2-pyridyl]-5-methyl-pyrazole-3-carbonitrile], the IC50 on SIK1 is 11 nM; on SIK2 it was 0.4 nM; on SIK3, 0.7 nM.

With `Cc1ccc(Nc2cc3c(cc2F)ncn3-c2ccc(C(C)O)c(-n3nc(C#N)cc3C)n2)nn1` (stereo not drawn) [Example 94, 1-[6-[5-Fluoro-6-[(6-methylpyridazin-3-yl)amino]benzimidazol-1-yl]-3-(1-hydroxyethyl)-2-pyridyl]-5-methyl-pyrazole-3-carbonitrile], the concentration for half-maximal inhibition (IC50) at SIK1 is 24 nM; at SIK2, 16.6 nM; at SIK3, 54.9 nM.

In the case of `Cc1cc(C#N)nn1-c1nc(-n2cnc3cc(Nc4cnn(C5COC5)c4)ccc32)ccc1C(C)O` (stereo not drawn) [Example 71, 1-[3-(1-Hydroxyethyl)-6-[5-[[1-(oxetan-3-yl)pyrazol-4-yl]amino]benzimidazol-1-yl]-2-pyridyl]-5-methyl-pyrazole-3-carbonitrile], the values for the IC50 at SIK1, on SIK2 and at SIK3 were 5 nM, 1.4 nM and 2.2 nM, respectively.

Consider `CNC(=O)c1cc(C)n(-c2nc(-n3cnc4ccc(Nc5ccc(C)nn5)cc43)ccc2C(C)O)n1` (stereo not drawn) [Example 144, 1-[3-(1-Hydroxyethyl)-6-[6-[(6-methylpyridazin-3-yl)amino]benzimidazol-1-yl]-2-pyridyl]-N,5-dimethyl-pyrazole-3-carboxamide], for which the IC50 amounted to 8400 nM at SIK1, 5920 nM at SIK2 and 9240 nM at SIK3.

On to `Cc1ccc(-c2ccc3ncn(-c4ccc(C(C)O)c(-n5nc(C#N)cc5C)n4)c3c2)nn1` (stereo not drawn) [Example 339, 1-[3-(1-hydroxyethyl)-6-[6-(6-methylpyridazin-3-yl)benzimidazol-1-yl]-2-pyridyl]-5-methyl-pyrazole-3-carbonitrile], for which the IC50 came out at 32 nM at SIK1, 29.7 nM at SIK2 and 301 nM at SIK3.

With `Cc1ccc(Nc2cc3ncn(-c4ccc([C@H](C)O)c(-n5nc(C(F)F)cc5C)n4)c3cc2F)nn1` [Example 301, (1S)-1-[2-[3-(difluoromethyl)-5-methyl-pyrazol-1-yl]-6-[6-fluoro-5-[(6-methylpyridazin-3-yl)amino]benzimidazol-1-yl]-3-pyridyl]ethanol], the IC50 on SIK1 came to 664 nM; on SIK2 it was 3.5 nM; on SIK3, 2 nM.

Source of the values: patent US20240383875A1, “Benzimidazole Pyridine Derivatives” (Hoffmann-La Roche Inc., priority 2022, published 2024).
